Data reported in ChEMBL document CHEMBL3885881, “DrugMatrix”.

Species on record: Rattus norvegicus
Assay: DrugMatrix - Regimen: Daily Repeat
Assay type: toxicity, organism-based, Sprague-Dawley
Design: regimen Daily Repeat, gender Male, age 6-8 weeks
Settings: in vivo, iv, vehicle 100 % SALINE; for ABSOLUTE BASOPHIL / ABSOLUTE EOSINOPHIL / ABSOLUTE LYMPHOCYTE / ABSOLUTE MONOCYTE / ABSOLUTE SEGMENTED NEUTROPHIL / BASOPHIL / EOSINOPHIL / ERYTHROCYTE COUNT / HEMATOCRIT / HEMOGLOBIN / LEUKOCYTE COUNT / LYMPHOCYTE / MEAN CORPUSCULAR HEMOGLOBIN / MEAN CORPUSCULAR HEMOGLOBIN CONCENTRATION / MEAN CORPUSCULAR VOLUME / MONOCYTE / NEUTROPHIL / NUCLEATED RED BLOOD CELLS / PLATELET COUNT: tissue Blood; for ALANINE AMINOTRANSFERASE / ALBUMIN / ALKALINE PHOSPHATASE / ASPARTATE AMINOTRANSFERASE / BLOOD UREA NITROGEN / CARBON DIOXIDE / CHLORIDE / CHOLESTEROL / CREATINE PHOSPHOKINASE / CREATININE / GLUCOSE / LACTATE DEHYDROGENASE / LIPASE / PHOSPHORUS / POTASSIUM / SODIUM / TOTAL BILIRUBIN / TOTAL PROTEIN / URIC ACID: tissue Plasma
[1] = 0 mg/kg, 72 h, dose level Control, time 3 day
[2] = 0 mg/kg, 120 h, dose level Control, time 5 day
[3] = 0.08 mg/kg, 72 h, dose level Low, time 3 day

CC[C@]1(O)C[C@@H]2CN(CCc3c([nH]c4ccccc34)[C@@](C(=O)OC)(c3cc4c(cc3OC)N(C)[C@H]3[C@@](O)(C(=O)OC)[C@H](OC(C)=O)[C@]5(CC)C=CCN6CC[C@]43[C@@H]65)C2)C1 [VINBLASTINE]
ABSOLUTE BASOPHIL [1]: 0 CELLS/uL
ABSOLUTE EOSINOPHIL [1]: 21.67 CELLS/uL
ABSOLUTE LYMPHOCYTE [1]: 10193.67 CELLS/uL
ABSOLUTE MONOCYTE [1]: 165.83 CELLS/uL
ABSOLUTE SEGMENTED NEUTROPHIL [1]: 702.17 CELLS/uL
BASOPHIL [1]: 0%
EOSINOPHIL [1]: 0.17%
ERYTHROCYTE COUNT [1]: 5.39 x10E6/uL
HEMATOCRIT [1]: 34.62%
HEMOGLOBIN [1]: 13.8 G/DL
LEUKOCYTE COUNT [1]: 11.08 x10E3/uL
LYMPHOCYTE [1]: 91.83%
MEAN CORPUSCULAR HEMOGLOBIN [1]: 25.68 pg
MEAN CORPUSCULAR HEMOGLOBIN CONCENTRATION [1]: 39.9 G/DL
MEAN CORPUSCULAR VOLUME [1]: 64.37 fL
MONOCYTE [1]: 1.5%
NEUTROPHIL [1]: 6.5%
NUCLEATED RED BLOOD CELLS [1]: 0 /100WBC
PLATELET COUNT [1]: 1202.83 x10E3/uL
ALANINE AMINOTRANSFERASE [1]: 55.5 u/L
ALBUMIN [1]: 4.22 G/DL
ALKALINE PHOSPHATASE [1]: 406.83 u/L
ASPARTATE AMINOTRANSFERASE [1]: 101.5 u/L
BLOOD UREA NITROGEN [1]: 13.5 mg/dL
CARBON DIOXIDE [1]: 30.33 mmol/L
CHLORIDE [1]: 102.17 MEQ/L
CHOLESTEROL [1]: 63.67 mg/dL
CREATINE PHOSPHOKINASE [1]: 732.67 u/L
CREATININE [1]: 0.2 mg/dL
GLUCOSE [1]: 157 mg/dL
LACTATE DEHYDROGENASE [1]: 442.5 u/L
LIPASE [1]: 10.83 u/L
PHOSPHORUS [1]: 12.68 mg/dL
POTASSIUM [1]: 5.67 MEQ/L
SODIUM [1]: 144 MEQ/L
TOTAL BILIRUBIN [1]: 0.15 mg/dL
TOTAL PROTEIN [1]: 6.02 G/DL
URIC ACID [1]: 1.55 mg/dL
ABSOLUTE BASOPHIL [2]: 0 CELLS/uL
ABSOLUTE EOSINOPHIL [2]: 17 CELLS/uL
ABSOLUTE LYMPHOCYTE [2]: 11849.17 CELLS/uL
ABSOLUTE MONOCYTE [2]: 69.83 CELLS/uL
ABSOLUTE SEGMENTED NEUTROPHIL [2]: 730.67 CELLS/uL
BASOPHIL [2]: 0%
EOSINOPHIL [2]: 0.17%
ERYTHROCYTE COUNT [2]: 5.93 x10E6/uL
HEMATOCRIT [2]: 37.42%
HEMOGLOBIN [2]: 14.4 G/DL
LEUKOCYTE COUNT [2]: 12.67 x10E3/uL
LYMPHOCYTE [2]: 93.17%
MEAN CORPUSCULAR HEMOGLOBIN [2]: 24.32 pg
MEAN CORPUSCULAR HEMOGLOBIN CONCENTRATION [2]: 38.5 G/DL
MEAN CORPUSCULAR VOLUME [2]: 63.08 fL
MONOCYTE [2]: 0.5%
NEUTROPHIL [2]: 6.17%
NUCLEATED RED BLOOD CELLS [2]: 0 /100WBC
PLATELET COUNT [2]: 1170.5 x10E3/uL
ALANINE AMINOTRANSFERASE [2]: 51 u/L
ALBUMIN [2]: 4.12 G/DL
ALKALINE PHOSPHATASE [2]: 392.67 u/L
ASPARTATE AMINOTRANSFERASE [2]: 81.67 u/L
BLOOD UREA NITROGEN [2]: 16.17 mg/dL
CARBON DIOXIDE [2]: 30.67 mmol/L
CHLORIDE [2]: 100.5 MEQ/L
CHOLESTEROL [2]: 64.83 mg/dL
CREATINE PHOSPHOKINASE [2]: 242.67 u/L
CREATININE [2]: 0.2 mg/dL
GLUCOSE [2]: 186.83 mg/dL
LACTATE DEHYDROGENASE [2]: 188 u/L
LIPASE [2]: 10.83 u/L
PHOSPHORUS [2]: 11.67 mg/dL
POTASSIUM [2]: 5.51 MEQ/L
SODIUM [2]: 142.55 MEQ/L
TOTAL BILIRUBIN [2]: 0.22 mg/dL
TOTAL PROTEIN [2]: 6.08 G/DL
URIC ACID [2]: 1.85 mg/dL
ABSOLUTE BASOPHIL [3]: 0 CELLS/uL
ABSOLUTE EOSINOPHIL [3]: 42 CELLS/uL
ABSOLUTE LYMPHOCYTE [3]: 6254.33 CELLS/uL
ABSOLUTE MONOCYTE [3]: 40 CELLS/uL
ABSOLUTE SEGMENTED NEUTROPHIL [3]: 297 CELLS/uL
BASOPHIL [3]: 0%
EOSINOPHIL [3]: 0.67%
ERYTHROCYTE COUNT [3]: 4.48 x10E6/uL
HEMATOCRIT [3]: 28.87%
HEMOGLOBIN [3]: 11.63 G/DL
LEUKOCYTE COUNT [3]: 6.63 x10E3/uL
LYMPHOCYTE [3]: 94.33%
MEAN CORPUSCULAR HEMOGLOBIN [3]: 26 pg
MEAN CORPUSCULAR HEMOGLOBIN CONCENTRATION [3]: 40.33 G/DL
MEAN CORPUSCULAR VOLUME [3]: 64.43 fL
MONOCYTE [3]: 0.67%
NEUTROPHIL [3]: 4.33%
NUCLEATED RED BLOOD CELLS [3]: 0 /100WBC
PLATELET COUNT [3]: 825.33 x10E3/uL
ALANINE AMINOTRANSFERASE [3]: 47.67 u/L
ALBUMIN [3]: 4.1 G/DL
ALKALINE PHOSPHATASE [3]: 395.67 u/L
ASPARTATE AMINOTRANSFERASE [3]: 99 u/L
BLOOD UREA NITROGEN [3]: 14 mg/dL
CARBON DIOXIDE [3]: 32.33 mmol/L
CHLORIDE [3]: 103.33 MEQ/L
CHOLESTEROL [3]: 67.33 mg/dL
CREATINE PHOSPHOKINASE [3]: 526.33 u/L
CREATININE [3]: 0.17 mg/dL
GLUCOSE [3]: 135 mg/dL
LACTATE DEHYDROGENASE [3]: 170.67 u/L
LIPASE [3]: 10.33 u/L
PHOSPHORUS [3]: 11.9 mg/dL
POTASSIUM [3]: 6.35 MEQ/L
SODIUM [3]: 144.8 MEQ/L
TOTAL BILIRUBIN [3]: 0.17 mg/dL
TOTAL PROTEIN [3]: 5.6 G/DL
URIC ACID [3]: 1.13 mg/dL
